Reference: the NIST ThermoML archive (doi:10.1016/j.fluid.2006.02.022)
Where “and” joins values, the source holds several entries; their conditions need not be identical. Equal values may be shown once. ± gives the expanded uncertainty stated by the source.

Assay: activity coefficient (dimensionless); of the first substance listed, at infinite dilution; xn = mol fraction of the nth substance listed
Details: 101 kPa, Liquid, Chromatography, x1 = 0

| activity coefficient (288.15 K) | activity coefficient (298.15 K) | activity coefficient (308.15 K) | activity coefficient (318.15 K) | activity coefficient (333.15 K) | Compound |
| --- | --- | --- | --- | --- | --- |
| 1350 ± 100 | 1990 ± 140 | 2530 ± 190 | 3320 ± 350 | – | CCOC(C)(C)CC [1,1-dimethylpropyl ethyl ether] + O |
| 6030 ± 490 | 6040 ± 530 | 5830 ± 570 | 5340 ± 620 | 4140 ± 620 | CCCCS [1-butanethiol] + O |
| 325 ± 22 | 514 ± 35 | 659 ± 46 | 873 ± 82 | – | CCOC(C)(C)C [2-ethoxy-2-methylpropane] + O |
| 390 ± 39 | 529 ± 44 | 725 ± 55 | 1070 ± 87 | – | CCC(C)(C)OC [2-methoxy-2-methylbutane] + O |
| 127 ± 13 | 139 ± 11 | 180 ± 14 | 234 ± 18 | – | COC(C)(C)C [2-methoxy-2-methylpropane] + O |
| 1120 ± 90 | 1140 ± 100 | 1190 ± 120 | 1130 ± 130 | – | CC(C)S [2-propanethiol] + O |
| 111000 ± 9700 | 143000 ± 16000 | 149000 ± 23000 | 126000 ± 27000 | 76900 ± 29000 | CCOC(C)(C)CC(C)(C)C [ethyl 1,1,3,3-tetramethylbutyl ether] + O |
| – | – | – | 47100 and 126000 | 35500 and 76900 | COC(C)(C)CC(C)(C)C [methyl 1,1,3,3-tetramethylbutyl ether] + O |
| 1260 ± 100 | 1270 ± 96 | 1310 ± 100 | 1290 ± 110 | 1100 ± 100 | c1ccsc1 [thiophene] + O |

| Compound | activity coefficient (288.15 K) | activity coefficient (298.15 K) | activity coefficient (308.15 K) | activity coefficient (318.15 K) | activity coefficient (333.15 K) |
| --- | --- | --- | --- | --- | --- |
| CCCS [1-propanethiol] + O | 1420 ± 110 | 1500 ± 120 | 1460 ± 130 | 1450 ± 150 | 1310 ± 160 |
| Cc1ccccc1 [toluene] + O | 8980 ± 950 | 8950 ± 950 | 8780 ± 930 | 8290 ± 880 | – |
